The compounds below were run against T1, Human Factor XIIa (Homo sapiens, UniProt P00748) (assay: Factor XIIa inhibitory activity in vitro (fluorogenic substrate H-DPro-Phe-Arg-AFC)). Conditions: 25° C., class symbols, read-out: Human FXIIa IC50.
T1 construct: purchased Enzyme Research Laboratories
T1 sequence (P00748 373-615 limits assumed): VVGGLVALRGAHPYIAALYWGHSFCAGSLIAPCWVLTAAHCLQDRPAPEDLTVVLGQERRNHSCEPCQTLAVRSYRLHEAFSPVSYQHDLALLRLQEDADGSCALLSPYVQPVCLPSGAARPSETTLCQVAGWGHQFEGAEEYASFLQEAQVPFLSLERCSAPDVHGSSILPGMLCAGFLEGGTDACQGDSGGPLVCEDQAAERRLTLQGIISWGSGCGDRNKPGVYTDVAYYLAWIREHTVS
Assay type: biochemical
Protocol: Determination of the % Inhibition for FXIIa
Human Factor XIIa (Enzyme Research Laboratories) was incubated at 25° C. with the fluorogenic substrate H-DPro-Phe-Arg-AFC and various concentrations of the test compound. Residual enzyme activity (initial rate of reaction) was determined by measuring the change in […] at 410 nm and the IC50 value for the test compound was determined.

SMILES | IC50 [µM]
CCCCOCC(=O)N[C@@H](Cc1ccc(F)c(F)c1)C(=O)NCc1ccc2c(N)nccc2c1 [Example 3.30] | 10 to 40
CC(C)(O)CC(=O)N[C@@H](Cc1ccc(F)c(F)c1)C(=O)NCc1ccc2c(N)nccc2c1 [Example 3.28] | 10 to 40
Nc1nccc2cc(CNC(=O)[C@H](Cc3ccc(F)c(F)c3)NC(=O)c3c[nH]nc3C3CC3)ccc12 [Example 0.61] | 10 to 40
Nc1nccc2cc(CNC(=O)[C@H](Cc3ccc(F)c(F)c3)NC(=O)c3ccc(-n4ccnc4)nc3)ccc12 [Example 0.10] | 10 to 40
N#Cc1ccc(CS(=O)(=O)N[C@@H](Cc2ccc(F)c(F)c2)C(=O)NCc2ccc3c(N)nccc3c2)cc1 [Example 55.04] | 10 to 40
CCOCCC(=O)N[C@@H](Cc1ccc(F)c(F)c1)C(=O)NCc1ccc2c(N)nccc2c1 [Example 20.04] | 10 to 40
CC(C)N[C@H](CCc1ccccc1)C(=O)N[C@@H](C)C(=O)NCc1cc2c(Cl)cccc2s1 [Example 9.23] | 10 to 40
Nc1nccc2cc(CNC(=O)[C@H](Cc3ccc(F)c(F)c3)NC(=O)c3cc(F)cc(F)c3)ccc12 [Example 0.73] | 10 to 40
Nc1nccc2cc(CNC(=O)[C@H](Cc3ccc(F)c(F)c3)NC(=O)c3ccno3)ccc12 [Example 0.30] | 10 to 40
Nc1nccc2cc(CNC(=O)[C@H](Cc3ccc(F)c(F)c3)NC(=O)C[C@@H]3CCCO3)ccc12 [Example 3.35] | 10 to 40
CCCS(=O)(=O)N[C@@H](Cc1ccc(F)c(F)c1)C(=O)NCc1ccc2c(N)nccc2c1 [Example 55.01] | 10 to 40
C[C@@H]1CCC[C@H](C)N1CC(=O)N1c2ccccc2C[C@H]1C(=O)NCc1ccc2c(N)nccc2c1 [Example 32.04] | 10 to 40
CC(C)n1cc(C(=O)N[C@@H](Cc2ccc(F)c(F)c2)C(=O)NCc2ccc3c(N)nccc3c2)cn1 [Example 0.07] | 10 to 40
Nc1nccc2cc(CNC(=O)[C@H](Cc3ccc(F)c(F)c3)NC(=O)CCn3cc(C(F)(F)F)ccc3=O)ccc12 [Example 3.29] | 10 to 40
Cc1nc2ccncc2cc1C(=O)N[C@@H](Cc1ccc(F)c(F)c1)C(=O)NCc1ccc2c(N)nccc2c1 [Example 0.26] | 10 to 40
Nc1nccc2cc(CNC(=O)[C@H](Cc3ccc(F)c(F)c3)NC(=O)c3ccc4ncsc4c3)ccc12 [Example 0.40] | 10 to 40
Nc1nccc2cc(CNC(=O)[C@@H](N)Cc3csc4ccccc34)ccc12 [Example 24.01] | 10 to 40
CC(C)c1nc(C(=O)N[C@@H](Cc2ccc(F)c(F)c2)C(=O)NCc2ccc3c(N)nccc3c2)cs1 [Example 0.91] | 10 to 40
Nc1nccc2cc(CNC(=O)[C@H](Cc3ccc(F)c(F)c3)NC(=O)c3ccc4c(c3)CC=C(O)N4)ccc12 [Example 0.76] | 10 to 40
Nc1nccc2cc(CNC(=O)[C@H](Cc3ccc(F)c(F)c3)NC(=O)c3cccnc3)ccc12 [Example 0.23] | 10 to 40

SMILES | IC50 [µM]
Cc1nc2ccccn2c1C(=O)N[C@@H](Cc1ccc(F)c(F)c1)C(=O)NCc1ccc2c(N)nccc2c1 [Example 0.53] | 10 to 40
CC(C)(C)OC(=O)N[C@H](CCc1ccccc1)C(=O)NCC(=O)NCc1ccc2c(N)nccc2c1 [Example 6.01] | 10 to 40
C[C@@H]1CCC[C@H](C)N1CC(=O)N[C@@H](Cc1ccc(F)c(F)c1)C(=O)NCc1ccc2[nH]cnc2c1 [Example 3.103] | 10 to 40
CC(NC(=O)[C@@H](CCc1ccccc1)NC1CCOCC1)C(=O)NCc1cnc2[nH]cc(Cl)c2c1 (some centres unmarked) [Example 9.22] | 10 to 40
Nc1nccc2cc(CNC(=O)[C@H](Cc3ccc(F)c(F)c3)NC(=O)c3ccsc3)ccc12 [Example 0.77] | 10 to 40
CC(C)n1nnc2cc(C(=O)N[C@@H](Cc3ccc(F)c(F)c3)C(=O)NCc3ccc4c(N)nccc4c3)ccc21 [Example 0.38] | 10 to 40
Cc1nc(C(=O)N[C@@H](Cc2ccc(F)c(F)c2)C(=O)NCc2ccc3c(N)nccc3c2)c(C)o1 [Example 0.06] | 10 to 40
Nc1nccc2cc(CNC(=O)[C@H](Cc3ccc(F)c(F)c3)NC(=O)CN3CCCCC3=O)ccc12 [Example 3.39] | 10 to 40
Nc1nccc2cc(CNC(=O)[C@H](Cc3ccc(F)c(F)c3)NC(=O)c3cc4ccccc4[nH]3)ccc12 [Example 0.85] | 10 to 40
Nc1nccc2cc(CNC(=O)[C@H](Cc3ccc(F)c(F)c3)NC(=O)CCc3[nH]nc4c3CCCC4)ccc12 [Example 20.10] | 10 to 40
Nc1nccc2cc(CNC(=O)[C@H](Cc3ccc(F)c(F)c3)NC(=O)c3ccncc3)ccc12 [Example 0.35] | 10 to 40
CN1CCC(C(=O)N[C@@H](Cc2ccc(F)c(F)c2)C(=O)NCc2ccc3c(N)nccc3c2)CC1 [Example 0.43] | 3 to 10
CC(C)c1cc(C(=O)N[C@@H](Cc2ccc(F)c(F)c2)C(=O)NCc2ccc3c(N)nccc3c2)[nH]n1 [Example 0.54] | 3 to 10
Nc1nccc2cc(CNC(=O)[C@H](Cc3ccc(F)c(F)c3)NC(=O)CCc3ccccc3)ccc12 [Example 0.46] | 10 to 40
C[C@@H]1CCC[C@H](C)N1[C@@H](C)C(=O)N[C@@H](Cc1ccc(F)c(F)c1)C(=O)NCc1ccc2c(N)nccc2c1 [Example 5.106] | 3 to 10
C[C@@H]1CCC[C@H](C)N1CC(=O)N[C@@H](Cc1ccc(F)c(F)c1)C(=O)NC1CCN(c2ccncc2)CC1 [Example 34.02] | 3 to 10
CC(C)N[C@H](CCc1ccccc1)C(=O)N[C@@H](C)C(=O)NCc1ccc(CN)cc1 [Example 9.10] | 3 to 10
Nc1nccc2cc(CNC(=O)[C@H](Cc3ccc(F)c(F)c3)NC(=O)C3CCC(O)CC3)ccc12 (some centres unmarked) [Example 0.56] | 10 to 40
Nc1nccc2cc(CNC(=O)[C@H](Cc3ccc(F)c(F)c3)NC(=O)c3cccc(Cn4cccn4)c3)ccc12 [Example 0.68] | 10 to 40
Nc1nccc2cc(CNC(=O)[C@H](Cc3ccc(F)c(F)c3)NC(=O)C(F)F)ccc12 [Example 0.66] | 3 to 10

The remaining lines, values ahead:

IC50 [µM] | SMILES
0.1 to 0.279 | CC1CCCC(C)N1CC(=O)N[C@@H](Cc1cccc(F)c1)C(=O)NCc1ccc2c(N)nccc2c1 (some centres unmarked) [Example 3.04]
3 to 10 | Cc1nccn1CCC(=O)N[C@@H](Cc1ccc(F)c(F)c1)C(=O)NCc1ccc2c(N)nccc2c1 [Example 3.31]
1 to 3 | CC1CCCC(C)N1CC(=O)N[C@@H](Cc1ccc(F)c(F)c1)C(=O)NCc1cnc2[nH]cc(Cl)c2c1 (some centres unmarked) [Example 3.101]
3 to 10 | CC(C)c1ncc(C(=O)N[C@@H](Cc2ccc(F)c(F)c2)C(=O)NCc2ccc3c(N)nccc3c2)cn1 [Example 0.92]
1 to 3 | CN(C)[C@H](CCc1ccccc1)C(=O)NCC(=O)NCc1ccc2c(N)nccc2c1 [Example 18.104]
3 to 10 | N#Cc1cccc(C(=O)N[C@@H](Cc2ccc(F)c(F)c2)C(=O)NCc2ccc3c(N)nccc3c2)c1 [Example 0.25]
0.28 to 1 | C[C@H]1CC[C@H](C)N1CC(=O)N[C@@H](Cc1ccc(F)c(F)c1)C(=O)NCc1ccc2c(N)nccc2c1 [Example 3.19]
3 to 10 | COc1cncc(C(=O)N[C@@H](Cc2ccc(F)c(F)c2)C(=O)NCc2ccc3c(N)nccc3c2)c1 [Example 0.12]
1 to 3 | Nc1nccc2cc(CNC(=O)[C@H](Cc3ccc(F)c(F)c3)NC(=O)CN3CCCC3)ccc12 [Example 3.41]
3 to 10 | CCCc1cc(C(=O)N[C@@H](Cc2ccc(F)c(F)c2)C(=O)NCc2ccc3c(N)nccc3c2)nn1C [Example 0.79]
1 to 3 | CN(C)CC(=O)N[C@@H](Cc1ccc(F)c(F)c1)C(=O)NCc1ccc2c(N)nccc2c1 [Example 3.03]
1 to 3 | C[C@H](NC(=O)[C@@H](CCc1ccccc1)NCc1ccccc1)C(=O)NCc1ccc2[nH]cc(Cl)c2c1 [Example 9.25]
3 to 10 | Nc1nccc2cc(CNC(=O)[C@H](Cc3ccc(F)c(F)c3)NC(=O)c3cccnn3)ccc12 [Example 0.15]
1 to 3 | Nc1nccc2cc(CNC(=O)[C@@H]3CCCCN3C(=O)[C@H](N)CCc3ccccc3)ccc12 [Example 17.03]
1 to 3 | Cc1ccc(C)c(S(=O)(=O)NCC(=O)N[C@@H](Cc2ccc(F)c(F)c2)C(=O)NCc2ccc3c(N)nccc3c2)c1 [Example 55.05]
1 to 3 | C[C@@H]1CCC[C@H](C)N1CC(=O)N1CCC[C@@H](C(=O)NCc2ccc3c(N)nccc3c2)C1 [Example 32.08]
3 to 10 | CS(=O)(=O)c1cccc(C(=O)N[C@@H](Cc2ccc(F)c(F)c2)C(=O)NCc2ccc3c(N)nccc3c2)c1 [Example 0.47]
3 to 10 | Nc1nccc2cc(CNC(=O)[C@H](Cc3ccc(F)c(F)c3)NC(=O)c3ccn[nH]3)ccc12 [Example 0.29]
3 to 10 | N[C@H](CCCCN1CCOCC1)C(=O)N1CC[C@H]1C(=O)NCc1ccc2[nH]cc(Cl)c2c1 [Example 10.19]
3 to 10 | CCC(C)[C@H](C(=O)N[C@@H](Cc1ccc(F)c(F)c1)C(=O)NCc1ccc2c(N)nccc2c1)N(C)C (some centres unmarked) [Example 5.101]
1 to 3 | C[C@@H]1CCC[C@H](C)N1CC(=O)N[C@@H](CCc1ccccc1)C(=O)NCc1ccc2c(N)nccc2c1 [Example 3.15]
3 to 10 | Nc1nccc2cc(CNC(=O)[C@H](Cc3ccc(F)c(F)c3)NC(=O)c3ccncn3)ccc12 [Example 0.71]
1 to 3 | CN(C)C(C)(C)C(=O)N[C@@H](Cc1ccc(F)c(F)c1)C(=O)NCc1ccc2c(N)nccc2c1 [Example 0.86]

Same assay, conditions: 25° C., numeric bound instead of class symbol, read-out: Human FXIIa IC50

IC50 [µM] | SMILES
> 12.7 | Cc1ccnn1-c1ccc(C(=O)N[C@@H](Cc2ccc(F)c(F)c2)C(=O)NCc2ccc3c(N)nccc3c2)cc1 [Example 0.83]
> 12.7 | Cc1nc(C(F)(F)F)ccc1C(=O)N[C@@H](Cc1ccc(F)c(F)c1)C(=O)NCc1ccc2c(N)nccc2c1 [Example 0.63]
